Measured values from patent EP1013767A1, “Method of screening for agrochemicals” (AMERICAN CYANAMID COMPANY, priority 1998, dated 2000).
“Also recorded” adds a separate entry of the source.

Assays:
LOX2:Hv:1 = assay: Northern blot analysis of LOX2:Hv:1 mRNA accumulation in primary leaves of barley; assay type: in vivo, Barley (Hordeum vulgare L.); conditions: for accumulation of LOX transcript: barley seedlings, powdery mildew susceptible and mlo-resistant cultivar, DCINA soil drench 10 mg active ingredient/L soil volume, BTH 1 mM spray; for kinetics of LOX2:Hv:1 transcript accumulation: 45 µM JM compared with 45 µM SA
Description: (§1) Barley (Hordeum vulgare L.) mlo-resistant cultivar Salome as well as the susceptible cultivars Pallas and Manchuria were grown as described for example by Hause et al., J. Plant Physiol. 150, 127-132 (1997). Inoculation with conidia of Blumeria graminis f. sp. hordei race A6 (Wiberg, Hereditas 77, 89-148 (1974)) were performed at a density of 10 conidia per mm^2 with the primary leaf of seven-days-old seedlings at the onset of the light period.
(§2) Segments of seven-days-old primary leaves were freshly harvested and either floated on water, freshly prepared (±) JM, or Na-salicylate.
(§3) DCINA (2,6-dichloroisonicotinic acid), formulated as 25 % active ingredient with a wettable powder (WP) carrier (Métraux et al., Advances in molecular genetics of plant microbe interactions. Vol. 1, Kluwer Academic Publishers, Dordrecht, The Netherlands, pp. 432-439 (1991)), was applied to 7-days-old barley seedlings as a soil drench at a final concentration of 10 mg active ingredient/L soil volume. BTH (benzo[1,2,3]-thiadiazole-7-carbothioic acid S-methyl ester) was applied at a concentration of 1 mM by spraying a formulation with WP in distilled water. Controls were treated with WP.
Total RNA was extracted as described for example by Hause et al., Plant Cell Physiol. 37, 641-649 (1996). Northern blot analysis was performed with digoxigenin-Iabelled cDNAs (DIG-High Prime labelling Kit, Boehringer Mannheim) of barley LOX2:Hv:1 (Vörös et al., loc. cit) and barley PR1b (Bryngelsson et al., Mol. Plant-Microbe Int. 7, 267-275 (1994)).

PR1b = assay: Northern blot analysis of PR1b mRNA accumulation in barley; assay type: in vivo, Barley (Hordeum vulgare L.); conditions: in response to treatment
Description: as §1, §2, §3
Total RNA was extracted as described for example by Hause et al., Plant Cell Physiol. 37, 641-649 (1996). […]

PR genes = conditions: wheat; cited from earlier work
powdery mildew fungus = conditions: barley, against the powdery mildew fungus; cited from earlier work

| Compound | accumulation of LOX transcript (LOX2:Hv:1) | LOX2:Hv:1 induction, BTH compared with DCINA (LOX2:Hv:1; in all experiments) | PR1b mRNA accumulation (PR1b) | activation of PR genes (PR genes) | kinetics of LOX2:Hv:1 transcript accumulation (LOX2:Hv:1) | LOX2:Hv:1 expression (LOX2:Hv:1; treatment with SA, cultivar Salome, leaf segments, 24 hours (Fig. 1)) | activation of SAR (powdery mildew fungus) | sensitivity of LOX2:Hv:1 (dose-response curves) (LOX2:Hv:1; JM compared with SA treatment, Fig. 1) |
| --- | --- | --- | --- | --- | --- | --- | --- | --- |
| CSC(=O)c1cccc2nnsc12 [BTH, benzo[1,2,3]-thiadiazole-7-carbothioic acid S-methyl ester] | accumulation of LOX transcript; also recorded: activate LOX | stronger induced | not pathogen related genes like PR1b | strongly activate |  |  |  |  |
| O=C(O)c1cc(Cl)nc(Cl)c1 [DCINA, 2,6-dichloroisonicotinic acid] | accumulation of LOX transcript |  |  | strongly activate |  |  |  |  |
| O=C(O)c1ccccc1O [SA, salicylic acid] |  |  |  | strongly activate | No differences | induced | activated SAR |  |
| CCC=CCC1C(=O)CCC1CC(=O)OC (racemic) [JM, jasmonic acid methyl ester] |  |  | not found |  | No differences |  |  | slightly higher sensitivity |
